Test results taken from article PMC8350397, “GSK137, a potent small-molecule BCL6 inhibitor with in vivo activity, suppresses antibody responses in mice” (The Journal of Biological Chemistry, 2021).

Legend:
[1] = molecular target: T1, human BCL6 BTB-POZ domain (nuclear receptor co-repressor 1 peptide) (Homo sapiens, UniProt P41182, C67R/C84N/C8Q); experiment: BCL6 TR-FRET assay, NCOR peptide displacement; assay type: binding; details: NCOR1 peptide, read-out: pIC50 Human TR-FRET nuclear receptor co-repressor 1 (converted)
T1 construct: BCL6-Flag-6H-Avi (5-129) C8Q, C67R, C84N proteins; Flag (C); 6H (His6) (C); made in house; host or cells: E. coli
Description: (§1) Human, mouse and rat BCL6-Flag-6H-Avi (5-129) C8Q, C67R, C84N proteins were expressed in E. coli according to standard procedures and purified on Ni-NTA, followed by ion exchange on a Source 30Q column and size exclusion on an Superdex 200 column in a buffer of 20 mM Tris, 250 mM NaCl, 5 mM DTT, 5% glycerol, pH 8.5. All protein purities were estimated to be >90% by SDS-PAGE and the expected masses were confirmed by MS analysis. For TR-FRET assay protein was enzymatically biotinylated by treatment of protein at 100 µM with a 2 fold molar excess of biotin in the presence of 2 mM ATP and 1 µM BirA enzyme in a buffer of 50 mM bicine pH 8.3, 10 mM MgCl2 at 30 °C for 1 hour, followed by extensivedialysis against 50 mM Tris-Cl pH 8.0, 100 mM NaCl, 1 mM DTT using a 3.5 kDa cut-off membrane. Biotinylation was confirmed by MS analysis and concentration was determined by Bradford assay, after which protein was stored in aliquots at -80 °C.
(§2) Acceptor-labelled SMRT peptide H2N-[…](D2)-OH was dissolved in water by mass to give a 500 µM stock solution which was stored at -20 °C. Acceptor-labelled NCOR peptide H2N-[…](Alexa Fluor 647)-OH and acceptor-labelled BCOR peptide H2N-[…](Alexa Fluor 647)-OH were dissolved to a nominal concentration of 1 mM in DMSO, and stock solution concentration was determined by absorbance at 650 nm using an extinction coefficient of 270,000 M-1cm^-1. […]

mouse BCL6 and SMRT = molecular target: T2, mouse BCL6 and SMRT (Mus musculus, UniProt P41183, C67R/C84N/C8Q); experiment: BCL6 TR-FRET assay, mouse BCL6 and SMRT; assay type: binding
T2 construct: BCL6-Flag-6H-Avi (5-129) C8Q, C67R, C84N proteins; Flag (C); 6H (His6) (C); made in house; host or cells: E. coli
Description: as §1, §2

Question: For Cc1ncccc1[C@H]1C[C@@H](c2cccc3nc(N)ccc23)Nc2c(F)cnn21 [GSK137, 5-((5S,7R)-3-Fluoro-7-(2-methylpyridin-3-yl)-4,5,6,7-tetrahydropyrazolo[1,5-a]pyrimidin-5-yl)quinolin-2-amine], which IC50 [1] is on record?
Answer: 25.1 nM

Question: What about the “pIC50 Mouse TR-FRET SMRT” value (mouse BCL6 and SMRT) of the same compound?
Answer: 7.8
